In the data set the test system is decubitus ulcers. Nature of the data set: Evaluation of n-butyl cyanoacrylate adhesive on inhibition of decubitus ulcers in 17 adult nursing home patients. In kind it is in vivo, human. How it is done:
An evaluation of the effect of n-butyl cyanoacrylate adhesive on the inhibition of decubitus ulcers in 17 adult patients located in nine different nursing homes was conducted. In this example, 17 patients were selected based on a history of recurring decubitus ulcer formation or, based on medical evaluation, were deemed to be at high risk of developing decubitus ulcers. A prophylactic treatment regimen was then employed on these patients which regimen consisted of using conventional pressure ulcer preventative practices primarily involving periodic rotation of the patient as well as application of an n-butyl cyanoacrylate adhesive composition onto the intact skin areas which appeared likely to develop pressure ulcers by virtue of irritation and reddening of the skin or unbroken blister formation which is classified as a stage I decubitus ulcer or by application of the n-butyl cyanoacrylate composition onto intact skin adjacent to type II decubitus ulcers. Application of n-butyl cyanoacrylate consisted of application of about 1-5 drops of the n-butyl cyanoacrylate composition onto the surface skin area prone to ulceration wherein each drop corresponds to about 0.03 ml of cyanoacrylate.
The specific amount of n-butyl cyanoacrylate adhesive and point of application of the adhesive for each patient are set forth in the following Table I:
After application, the cyanoacrylate adhesive was allowed to form a polymeric film and, on average, reapplication of the adhesive was conducted every 24 hours until the evaluation was completed.

Consider `C=C(C#N)C(=O)OCCCC` [n-butyl cyanoacrylate adhesive, n-butyl-2-cyanoacrylate], for which the “expansion of stage II decubitus ulcer to adjacent skin areas” value (all patients treated in skin areas adjacent to stage II decubitus ulcer, plus conventional preventative practices) is recorded as “minimal expansion of the ulcer”. The “progression to stage II decubitus ulcer formation (broken skin)” value (all patients with redness/irritation or blistering (stage I) of intact skin, plus conventional pressure ulcer preventative practices) is “did not progress to stage II decubitus ulcer formation”. In addition, the RESULT entry runs as follows: (patient 1, heel, redness 3 cm, 2 drops, reapplied about every 24 h, plus conventional preventative practices) “NO BREAKDOWN OF SKIN ON HEEL”; (patient 2, heel, redness 3 cm, 2 drops, reapplied about every 24 h, plus conventional practices) “LESS PERSPIRATION AND NO IRRITATION”; (patient 3, heels (2), blister (Stage I) 3-4 cm, 2 drops, reapplied about every 24 h, plus conventional practices) “NO BREAKDOWN OF BLISTER TO STAGE II”; (patient 4, heels (2) and elbows (2), redness 3-5 cm, 2 drops, reapplied about every 24 h, plus conventional practices) “NO SKIN BREAKDOWN ON HEELS OR ELBOWS”; (patient 5, cheek, redness ½-3 in, 2 drops, reapplied about every 24 h, plus conventional practices) “NO IRRITATION DEVELOPED”; (patient 6, lower leg, bruise 2-3 in, 4-5 drops, reapplied about every 24 h, plus conventional practices, listed as N-BUTYL CYANOACRYLATE ADHESIVES) “NO SKIN BREAKDOWN”. Moreover, the RESULT result runs as follows: (patient 7, shoulder, bony prominence 3-4 cm, 3-4 drops, reapplied about every 24 h, plus conventional practices, listed as N-BUTYL CYANOACRYLATE ADHESIVES) “SKIN DID NOT BREAKDOWN”; (patient 8, hip, bony prominence 3-4 cm, 3-4 drops, reapplied about every 24 h, plus conventional practices) “NO SKIN BREAKDOWN”; (patient 9, heels (2), redness 5 cm, 1 drop, reapplied about every 24 h, plus conventional practices) “NO IRRITATION/REDDENING LEFT”; (patient 10, hip, blister (Stage I) 3-4 cm, 2 drops, treatment stopped) “WARMING SENSATION UPON APPLICATION -”; (patient 11, top of foot, redness 2-5 cm, 1 drop, reapplied about every 24 h, plus conventional practices) “NO IRRITATION/REDDENlNG LEFT”; (patient 12, heel, redness (scabbed over - healed stage II) 6-8 cm, 3 drops, reapplied about every 24 h, plus conventional practices) “REDNESS HEALED UP”. Further, the RESULT result (patient 13, knees & heels, redness 2.5 cm, 3 drops, patient passed away due to other conditions) is recorded as “IRRITATION IMPROVED BUT PATIENT”; the RESULT entry (patient 14, heel, skin redness around Stage II ulcer 2.5 cm, 3 drops, reapplied about every 24 h, plus conventional practices) was “NO IRRITATION EVIDENT - HEELS ALMOST HEALED”; the RESULT result (patient 15, heels (2), redness 2.5 cm, 3 drops, reapplied about every 24 h, plus conventional practices) is recorded as “PATIENT'S HEELS LOOK BETTER,”; the RESULT entry (patient 16, hip, redness (healed Stage II ulcer) 2 cm, 2-3 drops, reapplied about every 24 h, plus conventional practices) is “NO FURTHER BREAKDOWN, REDDENING STILL”.

The values are drawn from patent publication US6492434B1, “Methods for inhibiting skin ulceration by use of cyanoacrylate adhesives” (Flowers PArk Ltd., priority 1995, dated 2002).
